Experiment: Microsomal stability in human liver microsomes assessed as intrinsic clearance
Type: ADME, Microsome
Settings: read-out: CLH

SMILES | CLint scaled
Nc1ncc(-c2cc(C3CC3)cc(N3C[C@@H]4C[C@H]3CO4)n2)nc1OC(F)F | 15.9 mL/min/kg
Nc1ncc(-c2cc(C3CC3)nc(N3C[C@@H]4C[C@H]3CO4)c2)nc1OC(F)F | 15.8 mL/min/kg
